According to the Kinase Knowledgebase extract (Sharma et al. 2016):

How the values were obtained:
[1] = target: CDK2 (human) (UniProt P24941); assay: Cell-Based Assay; conditions: rko
[2] = target: CDK2 (human) (UniProt P24941); assay: Cell-Based Assay; conditions: hdf
[3] = target: CDK2 (UniProt P24941); assay: Enzyme Assay
[4] = target: CDK2 (human) (UniProt P24941); assay: Cell-Based Assay

Row | Structure (SMILES) | IC50 [1] | IC50 [2] | IC50 [3] | IC50 ([4]; hdf) | IC50 ([4]; hdf-3) | IC50 ([4]; mda-mb-468) | IC50 ([4]; mes/sa) | IC50 ([4]; rko)
1 | NS(=O)(=O)c1ccc(NN=C2C(=O)Nc3ccc(-c4cnco4)cc32)cc1 | 600 to 1000 nM | > 5000 nM | 1 to 10 nM | 1100 to 5000 nM | 600 to 1000 nM | 600 to 1000 nM | 100 to 500 nM | 600 to 1000 nM
2 | CNS(=O)(=O)Cc1ccc(NN=C2C(=O)Nc3ccc4ncccc4c32)cc1 | 1100 to 5000 nM | > 5000 nM | 1 to 10 nM | > 5000 nM | 1100 to 5000 nM | – | – | > 5000 nM
3 | CNS(=O)(=O)Cc1ccc(NN=C2C(=O)Nc3cc(C)c(O)c(C)c32)cc1 | 100 to 500 nM | > 5000 nM | 51 to 100 nM | 600 to 1000 nM | 1100 to 5000 nM | – | > 5000 nM | 100 to 500 nM
4 | CN(C)S(=O)(=O)c1ccc(N/C=C2\C(=O)Nc3ccc(-c4cnco4)cc32)cc1 | 1100 to 5000 nM | > 5000 nM | 1 to 10 nM | – | > 5000 nM | > 5000 nM | > 5000 nM | 1100 to 5000 nM

Further lines, results first:

Row | IC50 [1] | IC50 [2] | IC50 [3] | IC50 ([4]; hdf) | IC50 ([4]; hdf-3) | IC50 ([4]; mda-mb-468) | IC50 ([4]; mes/sa) | IC50 ([4]; rko) | Structure (SMILES)
5 | 1100 to 5000 nM | > 5000 nM | 1 to 10 nM | – | 1100 to 5000 nM | – | – | – | CCC(C)Cc1cccc2c1C(=NNc1ccc(S(N)(=O)=O)cc1)C(=O)N2 (stereo not given)
6 | > 5000 nM | > 5000 nM | 11 to 50 nM | > 5000 nM | > 5000 nM | 1100 to 5000 nM | – | – | O=C1Nc2ccc3ncsc3c2/C1=C/Nc1ccc2nn[nH]c2c1
7 | 1100 to 5000 nM | > 5000 nM | 11 to 50 nM | > 5000 nM | 1100 to 5000 nM | – | 1100 to 5000 nM | > 5000 nM | CS(=O)(=O)Cc1ccc(N/C=C2\C(=O)Nc3ccc4ncsc4c32)cc1
